According to patent US20220183287A1, “METHODS FOR KILLING PESTS” (The United States of America, as represented by the …, priority 2020, published 2022):
Values joined by “and” are separate entries in the source; they are usually repeats but may differ in a detail not shown here. Equal values may be shown once. Marks after values point to notes of the source that are not given here.

Tests used:
[1] = test system: M. incognita second-stage juveniles; assay: Microwell assay: previously hatched J2 immersed in compounds, activity and viability; details: for % Active Day 1 / % Active Day 2: 0.1%, previously hatched J2 in aqueous solution; for viability at 0.1 % / mortality at 0.1 %: Meloidogyne incognita, 72 h; for viability at 0.1 %: read-out: % Viable Day 3 rinsed; for mortality at 0.1 %: read-out: nonviable (killed) J2; for nonviable (killed) J2: in vivo
Description: Nematode cultures: As described in Meyer et al. (Meyer, S. L. F., et al., Nematropica, 46: 85-96 (2016)), M. incognita race 1 (originally isolated in Maryland) was maintained in a greenhouse (24° to 29° C.; natural and supplemental lighting combined for a 16-h daylength) on susceptible cayenne pepper (Capsicum annuum) TA-136′ plants. All greenhouse experiments described herein were conducted under the same conditions. Two to three months after pepper plant inoculation, egg masses were picked from roots. Eggs were separated by 5 min immersion in 0.6% sodium hypochlorite, followed by a rinse in sterile distilled water (SDW). To collect second-stage juveniles (J2) for microwell assays, the surface-sterilized eggs were placed in a hatching chamber (Spectra/Mesh Nylon Filter, openings 25-μm-diam.; Spectrum Laboratories Inc., Rancho Dominguez, Calif.) set in an autoclaved dish that was placed on a rotary shaker for 3 days at 35 rpm. For some M. incognita and H. glycines assays, 25 or […] kanamycin monosulfate (Phytotechnology Laboratories, Shawnee Mission, Kans.) was added to the hatching chamber to prevent growth of bacteria. The collected J2 were then rinsed with water to remove the kanamycin monosulfate.
(§1) Compounds for the studies were purchased from three different companies: methyl benzoate, CAS Number 93-58-3, ≥99% purity; Tween 20, CAS Number: 9005-64-5; Tween 80, CAS Number: 9005-65-6; ethyl benzoate, CAS Number: 93-89-0, natural, ≥99% purity, FCC, FG; vinyl benzoate, CAS Number: 769-78-8, ≥99% purity; n-propyl benzoate, CAS Number: 2315-68-6, 99% purity; n-butyl benzoate, CAS Number: 136-60-7, 99% purity; benzyl benzoate, CAS Number: 120-51-4, natural, ≥99% purity, FCC, FG; methyl 2-methylbenzoate, CAS Number: 89-71-4, 99% purity; methyl 2-chlorobenzoate, CAS Number: 610-96-8, ≥98% purity; methyl 2-methoxybenzoate, CAS Number: 606-45-1, 99% purity and methyl 2-nitrobenzoate, CAS Number: 606-27-9, 98% purity were purchased from Sigma-Aldrich (St. Louis, Mo.). Compounds, iso-butyl benzoate, CAS Number 120-50-3, >98% purity; n-pentyl benzoate, CAS Number: 2049-96-9, ≥98% purity; and n-hexyl benzoate, CAS Number: 6789-88-4, ≥98% purity were purchased from Alfa Aesar (Tewksbury, Mass.). The compounds methyl 3-methoxybenzoate (methyl m-anisate), CAS Number: 5368-81-0; 97% and methyl 3-methylbenzoate (methyl m-toluate), CAS Number: 99-36-5, 97% purity were purchased from TCI America (Portland, Oreg.). All chemicals were used without further purification. Deionized water (DI) containing 1% emulsifier (v/v), Tween 20 and Tween 80, at 1:1 ratio was used to make different VOCs (volatile organic compounds) water solutions and also used as blank control.
(§2) For tests with individual compounds, the concentration of each compound was 0.1% before placement into wells; the final concentration in the wells was 0.095% after addition to eggs or J2 suspended in water. These are reported as 0.1% herein. An exception was Trial 2, M. incognita J2 activity and viability (Table 2): the final concentration was 0.1% after placement in wells. Low concentrations were selected for assays of combined compounds to determine if the combinations would increase nematotoxicity.
(§3) Laboratory assays were conducted in 96-well polystyrene plates following general procedures described in Wen et al. (2019). Each well received approximately 35 J2 (for previously hatched J2 assays) or 35 eggs that each contained either a first-stage juvenile (J1) or a J2. The plates were covered with plastic adhesive sealing film (Excel Scientific, Inc., Victorville Calif.) and then with the plate lids. Parafilm (Bemis, Neenah, Wis.) was used to seal the plates. The nematodes were then incubated at 26° C. […] Following the counts on Day 2, the treatments were removed and the J2 rinsed twice with SDW and incubated in the second rinse. […] Two trials were conducted for each assay.

[2] = test system: M. incognita eggs; assay: Microwell assay: eggs immersed in compounds, hatch and activity of hatched J2; type: in vivo, Meloidogyne incognita; details: 0.1%; for decrease in total hatch compared with the Tween control: Day 7; for % Active Day 2 / % Active Day 5 / % Active Day 7: J2 hatched from immersed eggs; for Hatch Day 2 / Hatch Day 5 / Hatch Day 7: hatched J2 per well, about 35 eggs per well; for decrease in % active J2 compared with the Tween control: J2 hatched from eggs, 7-day incubation
Description: (§4) All chemicals were used without further purification.
(§5) These are reported as 0.1% herein.
(§6) The nematodes were then incubated at 26° C. […] Two trials were conducted for each assay.
(§7) The assumptions of the model were checked.

[3] = test system: H. glycines second-stage juveniles; assay: Microwell assay: previously hatched J2 immersed in compounds, activity and viability; details: for reduction in % viable J2 compared with the Tween control: Day 3 following water rinse; for % Active Day 1 / % Active Day 2: previously hatched J2 in aqueous solution; for viability at 0.1 %: Heterodera glycines, 72 h, read-out: % Viable Day 3 rinsed
Description: The isolate of H. glycines race 3, originally isolated in Maryland, was maintained on soybean (Glycine max cv. ‘Essex’). As previously described (Wen, Y., et al. Plant Disease, 103: 2191-2198 (2019)), the roots were gently rubbed in water to dislodge cysts and mature females. The egg suspensions were then poured through nested sieves (#20 over /#60; pore sizes 850 μm and 250 μm diam., respectively) into a 454 g/liter sucrose solution. After 15 min, the cysts and females and cysts that floated to the top were collected, rinsed in water, and crushed with a rubber stopper on a #60 sieve (250-μm diam. pore size) that was partially submerged in distilled water. The egg suspension was washed through nested #230 over #500 sieves (pore sizes 63 μm and 25-μm diam., respectively). The eggs were collected in distilled water, and J2 hatched as described above.
as §1, §2, §3
Statistical analyses: The data were analyzed as either a general linear model using JMP or a generalized linear model for the best distribution to fit the residual using Proc Glimmix (Sas Institute). The assumptions of the model were checked. If not met, then appropriate statistical techniques were used so that data could met the assumptions of the models. In Sas, mean comparisons were done with Sidak adjusted p-values to hold the experiment-wise error at 0.05.

[4] = test system: Heterodera glycines eggs; assay: Microwell assay: eggs immersed in compounds, hatch and activity of hatched J2; type: in vivo; details: 0.1%; for % Active Day 2 / % Active Day 5 / % Active Day 7: J2 hatched from immersed eggs; for Hatch Day 2 / Hatch Day 5 / Hatch Day 7: hatched J2 per well, about 35 eggs per well; for pest or weed control at 0.1 %: Heterodera glycines, 168 h, read-out: egg hatch suppression compared with the Tween control
Description: as §4, §5, §6, §7

| SMILES | % Active Day 1 [1] | % Active Day 2 [1] | viability at 0.1 % [1] [%] | mortality at 0.1 % [1] [%] | % Active Day 2 [2] | % Active Day 5 [2] | % Active Day 7 [2] | Hatch Day 2 [2] | Hatch Day 5 [2] | Hatch Day 7 [2] | reduction in % viable J2 compared with the Tween control ([3]; 0.1%) [%] | % Active Day 1 ([3]; 0.1%) | % Active Day 2 ([3]; 0.1%) | viability at 0.1 % [3] [%] | % Active Day 2 [4] | % Active Day 5 [4] | % Active Day 7 [4] | Hatch Day 2 [4] | Hatch Day 5 [4] | Hatch Day 7 [4] | other results |
| --- | --- | --- | --- | --- | --- | --- | --- | --- | --- | --- | --- | --- | --- | --- | --- | --- | --- | --- | --- | --- | --- |
| COC(=O)c1ccccc1Cl [M2CB, Methyl 2-chlorobenzoate] | 0 ^f % | 0 ^d % | 0 | 100 | 0 ^c % | 0 e % | 0 ^c % | 1.7 ^d | 1.7 ^e | 2.3 ^e | 99 | 0.46 ^e % | 1.6 ^g % | 0.5 | 0 ^e % | 6.4 ^de % | 0 ^d % | 5.4 ^cd | 5.8 ^cd | 5.5 ^cd | decrease in total hatch compared with the Tween control [2]: ~95%; inactive J2 that hatched from the eggs ([4]; by Day 7): 100%; pest or weed control at 0.1 % ([4]; Day 7): 64 to 80% |
| COC(=O)c1ccccc1C [M2MB, Methyl 2-methylbenzoate] | 2.5 ^e % | 0 ^d % | 0 | 100 | 45.3 ^ab % | 11.8 ^d % | 17.4 ^b % | 4.3 ^cd | 6.6 ^bcd | 7.6 ^cd | – | 50.4 ^c % | 52.7 ^bc % | 46.4 | 23.8 ^cd % | 24.3 ^cde % | 30.9 ^ab % | 6.6 ^bcd | 7.6 ^bcd | 7.4 ^bcd | – |
| COC(=O)c1ccccc1OC [M2MOB, Methyl 2-methoxybenzoate] | 5.2 ^de % | 5.9 ^c % | 36.8 | – | 35.2 ^ab % | 32.5 ^cd % | 13.9 ^b % | 3.4 ^cd | 8.4 ^bc | 13.9 ^bc | – | 73.6 ^ab % | 66.3 ^ab % | 59.6 | 48.2 ^bc % | 43.0 ^abc % | 19.1 ^bc % | 8.7 ^abcd | 11.3 ^bc | 11.6 ^abc | nonviable (killed) J2 [1]: killed more than half; decrease in % active J2 compared with the Tween control [2]: 86%; % Viable Day 3 rinsed ([3]; 0.1%, after Day 2 water rinse): did not cause significant reductions |
| COC(=O)c1ccccc1[N+](=O)[O-] [M2NB, Methyl 2-nitrobenzoate] | 0 ^f % | 0 ^d % | 0 | 100 | 29.5 ^b % | 15.2 ^d % | 18.7 ^b % | 5.0 ^bcd | 12.1 ^b | 19.5 ^b | 51 | 54.2 ^c % | 34.1 ^de % | 30 | 35.8 ^c % | 28.6 ^bcd % | 25.3 ^bc % | 9.1 ^abc | 10.2 ^bc | 10.0 ^bc | decrease in total hatch compared with the Tween control [2]: about 58%; % active J2 suppression compared with the Tween control ([4]; Day 7): 53% |
| COC(=O)c1cccc(OC)c1 [M3MOB, Methyl 3-methoxybenzoate] | 0 ^f % | 0 ^d % | 0 | 100 | 0 ^c % | 0 ^e % | 0 ^c % | 2.0 ^cd | 2.7 ^de | 2.8 ^de | – | 12.2 ^d % | 10.4 ^g % | 11.1 | 0 ^e % | 0 ^f % | 6.9 ^bc % | 6.3 ^bcd | 6.4 ^bcd | 6.0 ^cd | pest or weed control at 0.1 % ([4]; Day 7): 64% |
| CC(C)COC(=O)c1ccccc1 [iBB, iso-Butyl benzoate] | 54.8 ^ab % | 41.1 ^b % | 42.9 | 52 | 61.2 ^ab % | 51.6 ^bc % | 38.0 ^b % | 6.4 ^abc | 7.2 ^bcd | 8.2 ^bcd | 43 | 55.6 ^c % | 45.2 ^cd % | 34.5 | 22.4 ^cd % | 18.4 ^cde % | 13.6 ^bc % | 6.7 ^bcd | 7.5 ^bcd | 7.3 ^bcd | decrease in % active J2 compared with the Tween control [2]: 60% |
| CCCCOC(=O)c1ccccc1 [nBB, n-Butyl benzoate] | 14.8 ^cd % | 5.8 ^c % | 2.9 | – | 17.1 ^b % | 0 ^e % | 0% and 0 ^c % | 3.3 ^cd | 4.1 ^cde | 4.6 ^de | – | 52.7 ^c % | 24.2 ^ef % | 26.3 | 3.6 ^d % | 9.2 ^de % | 8.8 ^bc % | 5.2 ^cd | 5.6 ^cd | 5.4 ^cd | nonviable (killed) J2 [1]: killed most of the J2; pest or weed control at 0.1 % ([4]; Day 7): 64 to 80% |
